{"source": "patent EP3521435A1", "about": "“A HIGH STRINGENCY SELECTION SYSTEM FOR PROTEIN EXPRESSION IN PROLINE-AUXOTROPHIC CELLS” (Bayer AG, priority 2018, dated 2019)", "key": {"CHO-K1 cells [1]": {"test_system": "CHO-K1 cells", "experiment": "Cell viability post-transfection of transfected cell populations under selection conditions", "format": "cell-based, Chinese hamster", "protocol": "(§1) To efficiently test the impact of different procedures on improving selection stringency, experimental testing in stable cell populations was performed. As test molecules, enhanced green fluorescent protein (GFP) as well as a human IgG1 were chosen. CHO-K1 cells adapted to growth in suspension in defined medium were obtained from SAFC and cultivated in EX-CELL CD CHO Fusion medium (SAFC 14365C). Custom-made EX-CELL CD CHO Fusion medium without L-Proline (Pro) and without L-Ornithine (Orn) (\"proline-free medium\") was obtained from SAFC. The expression vector system was based on modified versions of \"CET 1019 AS-puro-SceI\" and \"CET 1019 AD-puro-SceI\" for GFP and human IgG1, respectively, from Merck-Millipore, containing the Puromycin selection marker (Puromycin N-acetyl-transferase) known to exert a high selection stringency. To minimize variations in cell populations derived from using different transfections or different vectors, the first series of experiments were conducted using vectors into which a P5CS expression cassette was cloned upstream of a UCOE element, in addition to the Puromycin selection marker present downstream of a gene of interest. This way, it was possible to pool different transfections using the same vector to obtain a common starting point, and split the mixture according to different selection conditions, minimizing any variations that are not due to selection conditions themselves. Expression of long and short isoform of murine P5CS (Protein: Delta-1-pyrroline-5-carboxylate synthase; Gene: Aldh18a1; UniProtKB accession number: Q9Z110-1 & Q9Z110-2) was driven by a SV40 promoter. A SV40 polyadenylation sequence was used at the 3' end of the gene. More details can be found in Table 1. Typically, CHO cells were cultivated in EX-CELL CD CHO Fusion medium containing 6 mM GlutaMAX (Thermo Fisher, 35050-38) (\"CD-Fusion medium\") at 37 °C with 5% CO2. Cells were grown to logarithmic phase under shaking conditions for transfections. 1e7 cells/cuvette were transfected using nucleofection (Amaxa Nucleofector II, following the manufacturer's recommendations) with 5 µg of linearized DNA. After transfection, cells were taken up in 1 ml medium and transferred into 1 well of a 6 well microtiter plate (MTP) already containing 1 ml medium. The cells were incubated for 24 h without shaking, after which 9 ml medium were added and cells were washed (either in standard or proline-free medium). Multiple transfections were pooled, if applicable. Cells were adjusted to 2e5 viable cells/ml and 10 ml were transferred to T-25 flasks. Reference cell populations were selected using 10 µg/ml Puromycin in CD-Fusion medium. For P5CS-based selection, EX-CELL CD CHO Fusion medium (custom-made, SAFC) containing 6 mM GlutaMAX without proline and without ornithine was used (\"proline-free\" or \"CD-Fusion w/o Pro\" medium), with or without additional selection pressure.\n(§2) Cell viability of the different populations was monitored over time. As soon as cell populations appeared to recover from selection pressure, cells were transferred to Shake Flask or TubeSpins for expansion in suspension under shaking conditions. Subsequently, stable cell populations transfected with IgG were seeded at 2e5 viable cells/ml for batch fermentation without selection pressure (i.e. standard CD-Fusion medium containing proline and no other selective agents). The cells were cultivated for 5-10 days, viable cell densities and productivity were monitored over time. IgG titers were determined using Poros A-HPLC method. Typically, final batch titers were recorded at a time point at which majority of cultures had around 70% viability. Stable cell populations transfected with GFP vector were subjected to analysis by flow cytometry using Guava easyCyte 8HT Benchtop Flow Cytometer (Millipore). 250 µl of cell culture were transferred to 96 MTP and washed with PBS. Dead cells were excluded from analysis using propidium iodide (PI). […]"}, "CHO-K1 cells [2]": {"test_system": "CHO-K1 cells", "experiment": "Batch fermentation in shake flasks of human IgG1 expressing stable cell populations (Poros A-HPLC titer, viable cell density, viability)", "format": "cell-based, Chinese hamster", "conditions": "human IgG1, pJF1576, non-selecting conditions", "protocol": "as §1, §2"}, "[3]": {"conditions": "MOCK, CD-Fusion w/o Pro + 5 mM Orn"}}, "data": [{"compound": "NCCC[C@H](N)C(=O)O", "note": "[Orn, L-Ornithine]", "values": [{"measurement": "Viability on day 12 post-transfection", "setting": "CHO-K1 cells [1]; [3]", "result": 45, "unit": "%"}, {"measurement": "Viability on day 14 post-transfection", "setting": "CHO-K1 cells [1]; [3]", "result": 43, "unit": "%"}, {"measurement": "Viability on day 14 post-transfection", "setting": "CHO-K1 cells [1]; pJF1555, CD-Fusion w/o Pro + 0.2 mM Orn", "result": 83, "unit": "%"}, {"measurement": "Viability on day 14 post-transfection", "setting": "CHO-K1 cells [1]; pJF1555, CD-Fusion w/o Pro + 0.2 mM Orn + 10 µg/ml Puromycin", "result": 73, "unit": "%"}, {"measurement": "Viability on day 12 post-transfection", "setting": "CHO-K1 cells [1]; pJF1555, CD-Fusion w/o Pro + 0.25 mM Ornithine", "result": 88, "unit": "%"}, {"measurement": "Viability on day 12 post-transfection", "setting": "CHO-K1 cells [1]; pJF1555, CD-Fusion w/o Pro + 0.5 mM Ornithine", "result": 87, "unit": "%"}, {"measurement": "Viability on day 14 post-transfection", "setting": "CHO-K1 cells [1]; pJF1555, CD-Fusion w/o Pro + 1 mM Orn", "result": 87, "unit": "%"}, {"measurement": "Viability on day 14 post-transfection", "setting": "CHO-K1 cells [1]; pJF1555, CD-Fusion w/o Pro + 1 mM Orn + 10 µg/ml Puromycin", "result": 75, "unit": "%"}, {"measurement": "Viability on day 12 post-transfection", "setting": "CHO-K1 cells [1]; pJF1555, CD-Fusion w/o Pro + 1 mM Ornithine", "result": 91, "unit": "%"}, {"measurement": "Viability on day 12 post-transfection", "setting": "CHO-K1 cells [1]; pJF1555, CD-Fusion w/o Pro + 2 mM Ornithine", "result": 49, "unit": "%"}, {"measurement": "Viability on day 12 post-transfection", "setting": "CHO-K1 cells [1]; pJF1555, CD-Fusion w/o Pro + 3 mM Ornithine", "result": 36, "unit": "%"}, {"measurement": "Viability on day 12 post-transfection", "setting": "CHO-K1 cells [1]; pJF1555, CD-Fusion w/o Pro + 4 mM Ornithine", "result": 55, "unit": "%"}, {"measurement": "Viability on day 14 post-transfection", "setting": "CHO-K1 cells [1]; pJF1555, CD-Fusion w/o Pro + 5 mM Orn", "result": 51, "unit": "%"}, {"measurement": "Viability on day 14 post-transfection", "setting": "CHO-K1 cells [1]; pJF1555, CD-Fusion w/o Pro + 5 mM Orn + 10 µg/ml Puromycin", "result": 13, "unit": "%"}, {"measurement": "Viability on day 12 post-transfection", "setting": "CHO-K1 cells [1]; pJF1555, CD-Fusion w/o Pro + 5 mM Ornithine", "result": 53, "unit": "%"}, {"measurement": "concentration at which recovery kinetics were affected", "setting": "CHO-K1 cells [1]; pJF1555, proline-free medium, Table 8", "result": "≥ 2", "unit": "mM"}, {"measurement": "Batch titer day 7", "setting": "CHO-K1 cells [2]; selected in CD-Fusion w/o Pro + 0.2 mM Orn + 10 µg/ml Puromycin", "result": 173, "unit": "mg/L"}, {"measurement": "Batch titer day 7", "setting": "CHO-K1 cells [2]; selected in CD-Fusion w/o Pro + 0.2 mM Orn", "result": 120, "unit": "mg/L"}, {"measurement": "Batch titer day 7", "setting": "CHO-K1 cells [2]; selected in CD-Fusion w/o Pro + 1 mM Orn + 10 µg/ml Puromycin", "result": 159, "unit": "mg/L"}, {"measurement": "Batch titer day 7", "setting": "CHO-K1 cells [2]; selected in CD-Fusion w/o Pro + 1 mM Orn", "result": 135, "unit": "mg/L"}, {"measurement": "Batch titer day 7", "setting": "CHO-K1 cells [2]; selected in CD-Fusion w/o Pro + 5 mM Orn + 10 µg/ml Puromycin", "result": 38, "unit": "mg/L"}, {"measurement": "Batch titer day 7", "setting": "CHO-K1 cells [2]; selected in CD-Fusion w/o Pro + 5 mM Orn", "result": 9, "unit": "mg/L"}]}]}
